“Also recorded” adds a separate entry of the source.
What was measured:
recombinant human PDE5 = recombinant human PDE5 (Homo sapiens, UniProt O76074); assay: in vitro PDE5 kinetics assay (nonlinear regression, AICc model comparison); assay type: biochemical
Description: guidelines were considered in the description of the following enzyme activity assays. […] For kinetics assays, 0.015, 0.05, and 0.2 μM of compounds 3 and 7 were used. […] Maximum DMSO concentration was 0.1% of the final reaction volume for all samples. […] The final reaction volume was 100 μL. Reactions were stopped with the addition of 100 μL of 0.1 M HCl and neutralized by adding 0.1 M NaOH until the pH was 7. […] Reaction mixture components were separated with a ramp gradient of solvent A and B run at a flow rate of 0.5 mL/min as follows: 0-4 minutes 0% B, 4-7 minutes 0-95% B, 7-8 minutes 95% B, 8-11.1 minutes 0% B. GMP was measured using selected reaction monitoring in positive mode for a centroid center mass of 152. […] Top value was constrained to 100, all other parameters were unconstrained. To obtain the dose-response curves for visual confirmation of the best-fit line, we executed a nonlinear regression fitting using the log(inhibitor) vs. response-variable slope (four parameters) equation in Prism. […] AICc analysis (built into Prism) was used to confirm the best-fitting inhibition model. […] Inhibition models were also compared via visual inspection of the fit of the calculated curves on the Michaelis-Menten plots.

[1] = biological target: purified recombinant human PDE5 (Homo sapiens, UniProt O76074); assay: in vitro PDE5 inhibition assay measuring GMP production from cGMP (HPLC-UV-MS); assay type: biochemical; conditions: 1 nM PDE5 catalytic domain, 0.3 μM cGMP, 25 °C, 15 min; mean of at least three replicates ± SEM; read-out: IC50

Ki (recombinant human PDE5): 36 ± 7 nM | Preferred model (recombinant human PDE5; AICc comparison of competitive vs noncompetitive inhibition): Competitive inhibition | Preferred model (recombinant human PDE5; AICc comparison of competitive vs uncompetitive inhibition): Competitive inhibition | probability that the competitive inhibition model is correct (recombinant human PDE5; AICc, compared to a noncompetitive or uncompetitive model): > 99% | Probability it is correct (competitive inhibition) (recombinant human PDE5; AICc, competitive vs noncompetitive inhibition): >99.99% | Probability it is correct (competitive inhibition) (recombinant human PDE5; AICc, competitive vs uncompetitive inhibition): >99.99% | IC50 [1]: 140 ± 60 nM
SMILES: COc1ccc(-c2oc3c(CC=C(C)C)c(O)cc(O)c3c(=O)c2OCCCO)cc1 [Compound 7, 3-O-(3-Hydroxypropyl)-Icaritin]
mode of inhibition (recombinant human PDE5; Lineweaver-Burk plot and AICc analysis): competitive inhibition as the best fitting model; also recorded: partially competitive model
